Source: the supplement of paper PMC10307832

Key:
Test in all cases: relative viability (nuclei count vs DMSO), 5 days (fraction); higher = more cells survive
[1] = compound: CN1CCN(CC1)C2=CC(=C(C=C2)NC3=NC(=C(S3)C(=O)C4=C(C=CC=C4Cl)Cl)N)OC [XMD14-99] + COc1cc2c(Oc3ccc(NC(=O)C4(C(=O)Nc5ccc(F)cc5)CC4)cc3F)ccnc2cc1OCCCN1CCOCC1 [Foretinib] (partner 0.25 µM)
Summary of the method: (§1)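 Each reported value is a median over duplicate plates. It expresses relative viability: treated-well nuclei count divided by vehicle-well nuclei count. Lung cancer cell lines in 1536-well plates were dosed by pin tool a day after seeding, alone with one drug or with a fixed anchor-drug dose plus five library-drug doses (not always all listed) in √10 steps, and nuclei were counted after 5 days.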

[2] = compound: CN1CCN(CC1)C2=CC(=C(C=C2)NC3=NC(=C(S3)C(=O)C4=C(C=CC=C4Cl)Cl)N)OC [XMD14-99] + CS(=O)(=O)CCNCc1ccc(-c2ccc3ncnc(Nc4ccc(OCc5cccc(F)c5)c(Cl)c4)c3c2)o1 [Lapatinib] (partner 2 µM)
Summary of the method: as §1

[3] = compound: N[C@@H]1CCCN(c2c(/C=C3\SC(=O)NC3=O)cccc2-c2ccccc2)C1 [AZD1208] + COc1cccc2cc(-c3nc([C@H]4CC[C@H](C(=O)O)CC4)n4ncnc(N)c34)[nH]c12 [OSI-027] (partner 0.5 µM)
Summary of the method: as §1

[4] = compound: N[C@@H]1CCCN(c2c(/C=C3\SC(=O)NC3=O)cccc2-c2ccccc2)C1 [AZD1208] + O=C(c1cc(Cc2n[nH]c(=O)c3ccccc23)ccc1F)N1CCN(C(=O)C2CC2)CC1 [Olaparib] (partner 8 µM)
Summary of the method: as §1

## NCI-H2085
[1]; first compound 0.08 µM
  relative viability: 0.915
[1]; first compound 0.8 µM
  relative viability: 0.959
[1]; first compound 2.53 µM
  relative viability: 0.704
[1]; first compound 8 µM
  relative viability: 0.551
[2]; first compound 0.08 µM
  relative viability: 0.76
[2]; first compound 0.8 µM
  relative viability: 0.794
[2]; first compound 2.53 µM
  relative viability: 0.735
[2]; first compound 8 µM
  relative viability: 0.693
[3]; first compound 0.08 µM
  relative viability: 0.796
[3]; first compound 0.253 µM
  relative viability: 0.933
[3]; first compound 0.8 µM
  relative viability: 0.585
[3]; first compound 2.53 µM
  relative viability: 0.934
[3]; first compound 8 µM
  relative viability: 0.661
[4]; first compound 0.08 µM
  relative viability: 0.769
[4]; first compound 0.253 µM
  relative viability: 0.913
[4]; first compound 0.8 µM
  relative viability: 0.79
[4]; first compound 2.53 µM
  relative viability: 0.764
[4]; first compound 8 µM
  relative viability: 0.849

## NCI-H2087
[1]; first compound 0.08 µM
  relative viability: 1.05
[1]; first compound 0.8 µM
  relative viability: 0.86
[1]; first compound 2.53 µM
  relative viability: 0.746
[1]; first compound 8 µM
  relative viability: 0.569
[2]; first compound 0.08 µM
  relative viability: 1.07
[2]; first compound 0.8 µM
  relative viability: 1.08
[2]; first compound 2.53 µM
  relative viability: 0.842
[2]; first compound 8 µM
  relative viability: 0.702
[3]; first compound 0.08 µM
  relative viability: 0.518
[3]; first compound 0.253 µM
  relative viability: 0.508
[3]; first compound 0.8 µM
  relative viability: 0.427
[3]; first compound 2.53 µM
  relative viability: 0.513
[3]; first compound 8 µM
  relative viability: 0.445
[4]; first compound 0.08 µM
  relative viability: 0.543
[4]; first compound 0.253 µM
  relative viability: 0.548
[4]; first compound 0.8 µM
  relative viability: 0.513
[4]; first compound 2.53 µM
  relative viability: 0.515
[4]; first compound 8 µM
  relative viability: 0.435

## NCI-H2126
[1]; first compound 0.08 µM
  relative viability: 1.19
[1]; first compound 0.8 µM
  relative viability: 1.13
[1]; first compound 2.53 µM
  relative viability: 1.2
[1]; first compound 8 µM
  relative viability: 0.832
[2]; first compound 0.08 µM
  relative viability: 0.77
[2]; first compound 0.8 µM
  relative viability: 0.756
[2]; first compound 2.53 µM
  relative viability: 0.765
[2]; first compound 8 µM
  relative viability: 0.701
[3]; first compound 0.08 µM
  relative viability: 0.74
[3]; first compound 0.253 µM
  relative viability: 0.704
[3]; first compound 0.8 µM
  relative viability: 0.68
[3]; first compound 2.53 µM
  relative viability: 0.613
[3]; first compound 8 µM
  relative viability: 0.674
[4]; first compound 0.08 µM
  relative viability: 0.944
[4]; first compound 0.253 µM
  relative viability: 0.917
[4]; first compound 0.8 µM
  relative viability: 0.759
[4]; first compound 2.53 µM
  relative viability: 0.912
[4]; first compound 8 µM
  relative viability: 0.828

## NCI-H2170
[1]; first compound 0.08 µM
  relative viability: 0.978
[1]; first compound 0.8 µM
  relative viability: 1.02
[1]; first compound 2.53 µM
  relative viability: 1.02
[1]; first compound 8 µM
  relative viability: 0.921
[2]; first compound 0.08 µM
  relative viability: 0.263
[2]; first compound 0.8 µM
  relative viability: 0.27
[2]; first compound 2.53 µM
  relative viability: 0.245
[2]; first compound 8 µM
  relative viability: 0.259
[3]; first compound 0.08 µM
  relative viability: 0.751
[3]; first compound 0.253 µM
  relative viability: 0.653
[3]; first compound 0.8 µM
  relative viability: 0.636
[3]; first compound 2.53 µM
  relative viability: 0.625
[3]; first compound 8 µM
  relative viability: 0.535
[4]; first compound 0.08 µM
  relative viability: 0.683
[4]; first compound 0.253 µM
  relative viability: 0.697
[4]; first compound 0.8 µM
  relative viability: 0.55
[4]; first compound 2.53 µM
  relative viability: 0.552
[4]; first compound 8 µM
  relative viability: 0.385

## NCI-H2228
[1]; first compound 0.08 µM
  relative viability: 0.994
[1]; first compound 0.8 µM
  relative viability: 0.806
[1]; first compound 2.53 µM
  relative viability: 0.83
[1]; first compound 8 µM
  relative viability: 0.444
[2]; first compound 0.08 µM
  relative viability: 0.952
[2]; first compound 0.8 µM
  relative viability: 0.9
[2]; first compound 2.53 µM
  relative viability: 0.811
[2]; first compound 8 µM
  relative viability: 0.291
[3]; first compound 0.08 µM
  relative viability: 0.5
[3]; first compound 0.253 µM
  relative viability: 0.586
[3]; first compound 0.8 µM
  relative viability: 0.406
[3]; first compound 2.53 µM
  relative viability: 0.308
[3]; first compound 8 µM
  relative viability: 0.304
[4]; first compound 0.08 µM
  relative viability: 0.557
[4]; first compound 0.253 µM
  relative viability: 0.754
[4]; first compound 0.8 µM
  relative viability: 0.584
[4]; first compound 2.53 µM
  relative viability: 0.527
[4]; first compound 8 µM
  relative viability: 0.673

## NCI-H2347
[1]; first compound 0.08 µM
  relative viability: 0.913
[1]; first compound 0.8 µM
  relative viability: 0.92
[1]; first compound 2.53 µM
  relative viability: 1
[1]; first compound 8 µM
  relative viability: 0.369
[2]; first compound 0.08 µM
  relative viability: 0.957
[2]; first compound 0.8 µM
  relative viability: 0.907
[2]; first compound 2.53 µM
  relative viability: 0.793
[2]; first compound 8 µM
  relative viability: 0.659
[3]; first compound 0.08 µM
  relative viability: 0.321
[3]; first compound 0.253 µM
  relative viability: 0.344
[3]; first compound 0.8 µM
  relative viability: 0.329
[3]; first compound 2.53 µM
  relative viability: 0.302
[3]; first compound 8 µM
  relative viability: 0.35
[4]; first compound 0.08 µM
  relative viability: 0.614
[4]; first compound 0.253 µM
  relative viability: 0.628
[4]; first compound 0.8 µM
  relative viability: 0.518
[4]; first compound 2.53 µM
  relative viability: 0.541
[4]; first compound 8 µM
  relative viability: 0.538

## NCI-H2405
[1]; first compound 0.08 µM
  relative viability: 1.04
[1]; first compound 0.8 µM
  relative viability: 1.03
[1]; first compound 2.53 µM
  relative viability: 1.02
[1]; first compound 8 µM
  relative viability: 0.838
[2]; first compound 0.08 µM
  relative viability: 1.1
[2]; first compound 0.8 µM
  relative viability: 1.16
[2]; first compound 2.53 µM
  relative viability: 0.971
[2]; first compound 8 µM
  relative viability: 0.778
[3]; first compound 0.08 µM
  relative viability: 0.52
[3]; first compound 0.253 µM
  relative viability: 0.575
[3]; first compound 0.8 µM
  relative viability: 0.56
[3]; first compound 2.53 µM
  relative viability: 0.607
[3]; first compound 8 µM
  relative viability: 0.532
[4]; first compound 0.08 µM
  relative viability: 0.806
[4]; first compound 0.253 µM
  relative viability: 0.837
[4]; first compound 0.8 µM
  relative viability: 0.813
[4]; first compound 2.53 µM
  relative viability: 0.813
[4]; first compound 8 µM
  relative viability: 0.891

## NCI-H3122
[1]; first compound 0.08 µM
  relative viability: 0.948
[1]; first compound 0.8 µM
  relative viability: 0.964
[1]; first compound 2.53 µM
  relative viability: 0.847
[1]; first compound 8 µM
  relative viability: 0.756
[2]; first compound 0.08 µM
  relative viability: 0.982
[2]; first compound 0.8 µM
  relative viability: 0.965
[2]; first compound 2.53 µM
  relative viability: 0.879
[2]; first compound 8 µM
  relative viability: 0.746
[3]; first compound 0.08 µM
  relative viability: 0.842
[3]; first compound 0.253 µM
  relative viability: 0.856
[3]; first compound 0.8 µM
  relative viability: 0.768
[3]; first compound 2.53 µM
  relative viability: 0.862
[3]; first compound 8 µM
  relative viability: 0.606
[4]; first compound 0.08 µM
  relative viability: 0.691
[4]; first compound 0.253 µM
  relative viability: 0.677
[4]; first compound 0.8 µM
  relative viability: 0.615
[4]; first compound 2.53 µM
  relative viability: 0.608
[4]; first compound 8 µM
  relative viability: 0.691

## PC-3 [JPC-3]
[1]; first compound 0.08 µM
  relative viability: 1.06
[1]; first compound 0.8 µM
  relative viability: 0.957
[1]; first compound 2.53 µM
  relative viability: 0.858
[1]; first compound 8 µM
  relative viability: 0.762
[2]; first compound 0.08 µM
  relative viability: 0.491
[2]; first compound 0.8 µM
  relative viability: 0.443
[2]; first compound 2.53 µM
  relative viability: 0.41
[2]; first compound 8 µM
  relative viability: 0.387
[3]; first compound 0.08 µM
  relative viability: 0.8
[3]; first compound 0.253 µM
  relative viability: 0.698
[3]; first compound 0.8 µM
  relative viability: 0.762
[3]; first compound 2.53 µM
  relative viability: 0.702
[3]; first compound 8 µM
  relative viability: 0.628
[4]; first compound 0.08 µM
  relative viability: 1.17
[4]; first compound 0.253 µM
  relative viability: 1.31
[4]; first compound 0.8 µM
  relative viability: 1.1
[4]; first compound 2.53 µM
  relative viability: 1.2
[4]; first compound 8 µM
  relative viability: 1.19
